Experimental findings from ChEMBL document CHEMBL1201862, “PubChem BioAssay data set” (2004) are described below.

In assay [1] the test system is A-375. Put plainly: MITF: Counter assay: A375 proliferation Measured in Cell-Based System Using Plate Reader - 2084-03_Inhibitor_Dose_DryPowder_Activity. [Related pubchem assays (depositor defined):AID488944]. Conditions: Homo sapiens. It is filed as functional.
In assay [2] the target is T1, Long-chain-fatty-acid--AMP ligase FadD28 (Mycobacterium tuberculosis, UniProt P9WQ59).
T1 sequence (P9WQ59 whole entry): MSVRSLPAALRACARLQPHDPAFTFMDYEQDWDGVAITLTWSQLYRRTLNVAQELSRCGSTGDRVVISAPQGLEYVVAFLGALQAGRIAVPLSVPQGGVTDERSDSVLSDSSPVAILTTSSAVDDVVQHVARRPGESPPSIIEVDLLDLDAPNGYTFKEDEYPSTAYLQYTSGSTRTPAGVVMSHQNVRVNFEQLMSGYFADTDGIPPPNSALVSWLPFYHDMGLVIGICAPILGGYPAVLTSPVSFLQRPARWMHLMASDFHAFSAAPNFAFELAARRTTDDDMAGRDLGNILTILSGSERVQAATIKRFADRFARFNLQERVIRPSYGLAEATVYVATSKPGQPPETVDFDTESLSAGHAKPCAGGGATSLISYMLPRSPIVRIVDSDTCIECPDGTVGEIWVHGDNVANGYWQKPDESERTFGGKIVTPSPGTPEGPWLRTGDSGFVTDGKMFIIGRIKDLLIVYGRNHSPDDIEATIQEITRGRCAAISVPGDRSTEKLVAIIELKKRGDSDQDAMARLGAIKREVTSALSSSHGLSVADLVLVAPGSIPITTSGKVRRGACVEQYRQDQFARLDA
Put plainly: Fluorescence polarization aasay to screen for inhibitors that compete for the binding of FadD28 to a bisubstrate Measured in Biochemical System Using Plate Reader - 2147-01_Inhibitor_Dose_CherryPick_Activity. The format is functional, Mycobacterium tuberculosis H37Rv.

Assay [3] concerns the target T2, Microphthalmia-associated transcription factor (Homo sapiens, UniProt O75030).
T2 sequence (O75030 whole entry): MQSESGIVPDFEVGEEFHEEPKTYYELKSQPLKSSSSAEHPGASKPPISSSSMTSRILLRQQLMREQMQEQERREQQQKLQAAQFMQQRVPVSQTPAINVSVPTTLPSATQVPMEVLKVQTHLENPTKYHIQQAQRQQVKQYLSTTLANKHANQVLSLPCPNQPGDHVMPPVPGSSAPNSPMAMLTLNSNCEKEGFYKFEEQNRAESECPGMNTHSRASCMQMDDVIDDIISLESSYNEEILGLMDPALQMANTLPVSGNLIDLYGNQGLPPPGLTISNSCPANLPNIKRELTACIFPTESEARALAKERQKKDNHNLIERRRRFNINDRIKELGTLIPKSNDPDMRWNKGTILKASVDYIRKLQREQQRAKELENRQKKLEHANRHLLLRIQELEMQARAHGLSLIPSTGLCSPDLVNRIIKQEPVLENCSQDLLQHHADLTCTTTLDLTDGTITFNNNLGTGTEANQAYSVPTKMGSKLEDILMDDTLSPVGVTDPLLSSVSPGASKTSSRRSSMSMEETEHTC
In words: TRPM1 promoter luciferase signal decrease, dose response, MITF inhibitor project, cell-based, SK-MEL-5, cherry-picked, set 3 (AID 493073).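 Note: SK-MEL-5 melanoma cells with luciferase driven by the MITF target TRPM1 promoter.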 It is filed as functional.

The subject of assay [4] is A-375. In words: A375 melanoma cell viability reduction, dose response, counter-screen for MITF modulator project, cherry-pick samples, set 2 (AID 540335). The format is functional, cell-based. Conditions: Homo sapiens.
In assay [5] the test system is Vero. In words: cells. The format is functional. Conditions: Chlorocebus sabaeus.
Assay [6] deals with Vero. Put plainly: cells. The format is functional, cell-based. Conditions: Chlorocebus sabaeus.
The target in assay [7] is T3, Heat shock factor protein 1 (Mus musculus, UniProt P38532).
T3 sequence (P38532 whole entry): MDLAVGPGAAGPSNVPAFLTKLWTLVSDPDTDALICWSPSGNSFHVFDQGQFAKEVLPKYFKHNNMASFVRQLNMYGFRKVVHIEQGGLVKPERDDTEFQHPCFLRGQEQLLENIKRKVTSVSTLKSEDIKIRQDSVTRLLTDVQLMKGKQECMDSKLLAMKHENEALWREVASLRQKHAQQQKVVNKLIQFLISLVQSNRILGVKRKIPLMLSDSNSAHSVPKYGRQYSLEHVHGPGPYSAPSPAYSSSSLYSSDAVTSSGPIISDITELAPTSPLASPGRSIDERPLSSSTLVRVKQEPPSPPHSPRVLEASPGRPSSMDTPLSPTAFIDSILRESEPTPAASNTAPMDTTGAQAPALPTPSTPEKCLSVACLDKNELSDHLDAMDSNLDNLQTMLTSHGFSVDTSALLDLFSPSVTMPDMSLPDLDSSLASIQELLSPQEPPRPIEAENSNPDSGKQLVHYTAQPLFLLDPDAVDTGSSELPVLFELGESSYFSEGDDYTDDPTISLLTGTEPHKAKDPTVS
In words: HSF1 potentiators in luciferase reporter cells, confirmation, cell-based, NIH3T3, luminescence, dose retest (AID 435004).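 Note: stress induced by proteasome inhibitor MG132 added 30 min after compound; luciferase reporter driven by HSF1 response element in NIH3T3 cells; actives raise luminescence as potentiators of the MG132 stress response.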 It is filed as functional.

The nature of assay [8]: control 3'UTR Renilla luciferase suppression, dose response, counter-screen for Shn3 inhibitor project, cell-based, Clone20-Shn3RL, cherry-picked (AID 624133). The format is functional.
Assay [9] has as its target E3 ubiquitin-protein ligase Mdm2 (Homo sapiens, UniProt Q00987). In words: enhancers of MDM2-luciferase reporter signal, concentration-effect titration, project on inhibitors of MDM2 ubiquitin ligase, cellular assay, luminescent readout, 384-well plate format (AID 1394).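 Note: MDM2 E3 inhibitors raise luminescence so EC50 is for signal enhancement.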 It is filed as functional.
Assay [10] in a line: HepG2 cell cytotoxicity, dose response, cytotoxicity control for Shn3 inhibitor project, CellTiter-Glo, cherry-picked (AID 624134). It is filed as functional, cell-based.
The nature of assay [11]: Shn3 3'UTR reporter inhibitors, dose response, cell-based, Clone20 osteoblasts, firefly luciferase, cherry-picked (AID 624132).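 Note: firefly luciferase luminescence from reporter carrying the Shn3 3'UTR in osteoblasts.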 It is filed as functional.
Assay [12] is described as follows: cytotoxicity in HEK-293T cells, dose response, cytotoxicity control for TCR NF-kB inhibitor project, luminescence, T-cell screen hits (AID 489026).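 Note: cells exposed to compound about 14 hours before the viability readout.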 The format is functional, cell-based.
In another assay the test system is HeLa. In words: HeLa cell cytotoxicity, dose response, cytotoxicity control for MITF activator project, CellTiter-Glo luminescence, cherry-pick samples (AID 540259). The format is functional, cell-based. The settings on record: Homo sapiens.
Another assay concerns the target T4, Streptokinase A (Streptococcus pyogenes serotype M1, UniProt P10520).
T4 sequence (P10520 whole entry): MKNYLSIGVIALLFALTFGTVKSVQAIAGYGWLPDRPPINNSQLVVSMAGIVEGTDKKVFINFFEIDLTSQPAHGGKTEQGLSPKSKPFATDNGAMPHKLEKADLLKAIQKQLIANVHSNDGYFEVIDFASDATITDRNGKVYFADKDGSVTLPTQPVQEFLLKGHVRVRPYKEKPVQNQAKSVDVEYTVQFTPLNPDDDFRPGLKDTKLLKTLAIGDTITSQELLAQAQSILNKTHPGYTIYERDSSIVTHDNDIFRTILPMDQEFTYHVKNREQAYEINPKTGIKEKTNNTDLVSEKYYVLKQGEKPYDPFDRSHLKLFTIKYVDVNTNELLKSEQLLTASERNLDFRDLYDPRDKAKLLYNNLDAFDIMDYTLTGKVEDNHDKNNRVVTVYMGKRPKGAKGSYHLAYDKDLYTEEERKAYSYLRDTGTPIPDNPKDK
Put plainly: S. pyogenes streptokinase expression inhibitors, potency, dose response, plasminogen activation absorbance, OD405 (AID 1914).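 Note: secreted streptokinase activity via plasminogen activation per viability signal from cell pellet.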 The format is functional, Streptococcus pyogenes M1 GAS.

A further assay has as its system Streptococcus. In words: Group A Streptococcus viability loss, dose response, counter-screen for streptokinase expression inhibitor project, luminescence, BacTiterGlo (AID 1915).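 Note: potency for reduction of bacterial viability or growth.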 The format is functional, organism-based.
Assay [13] deals with Streptococcus sp. 'group A'. In words: growth inhibition of control SK(-) GAS strain, dose response, counter-screen for streptokinase expression inhibitor project, luminescence, kanamycin, BacTiterGlo, confirmation (AID 1900). It is filed as functional, organism-based.

Activity calls are given as the source filed them.

E3 ubiquitin-protein ligase Mdm2, sequence (Q00987 whole entry): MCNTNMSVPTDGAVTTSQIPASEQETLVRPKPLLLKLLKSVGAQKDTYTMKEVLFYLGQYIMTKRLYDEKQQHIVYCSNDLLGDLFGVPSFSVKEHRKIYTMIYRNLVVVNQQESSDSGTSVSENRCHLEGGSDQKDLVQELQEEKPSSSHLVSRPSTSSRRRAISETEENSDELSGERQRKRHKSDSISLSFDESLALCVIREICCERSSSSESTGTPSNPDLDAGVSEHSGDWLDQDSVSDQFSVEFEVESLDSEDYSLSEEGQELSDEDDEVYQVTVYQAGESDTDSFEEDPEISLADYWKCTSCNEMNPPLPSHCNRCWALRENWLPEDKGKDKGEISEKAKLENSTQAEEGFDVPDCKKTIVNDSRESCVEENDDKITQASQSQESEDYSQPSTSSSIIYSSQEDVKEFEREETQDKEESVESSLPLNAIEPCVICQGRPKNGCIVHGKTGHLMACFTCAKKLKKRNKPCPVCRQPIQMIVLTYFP

For the molecule `O=C(O)c1cc(N/N=C/C(Cl)=C/c2ccccc2)ccc1Cl`, the AC50 was > 11 µM (active) in the assay with A-375 [1], 13.6 µM (active) in assay [2], 10.4 µM (active) in [3] and > 11 µM (active) in the assay with A-375 [4].
Consider `ClCCn1cnc2c(SCc3ccccc3)ncnc21`, for which the half-maximal cytotoxic concentration (CC50) in the assay with Vero [5] was > 25 µM (active). In the assay on Vero [6], the IC50 is 2.03 µM (active).
Turning to `COc1ccc(C)c2sc(N(CCCN(C)C)C(=O)c3ccc4c(c3)OCCO4)nc12`, the IC50 in the assay on Vero [6] is 24.2 µM (active).
In the case of `O=C(/C=C/c1cccc([N+](=O)[O-])c1)n1cnc2ccccc21`, the AC50 in the assay on A-375 [1] was 28.2 µM (active); in assay [8], 14.7 µM (active); in assay [3], 4.39 µM (active); in assay [10], > 70 µM (inactive); in assay [11], 594 nM (active). For the same molecule, the EC50 was 1.62 µM (inconclusive) in assay [7] and 1.68 µM (active) in assay [9]. Besides, the IC50 in assay [12] is > 80 µM (inactive).
For `O=C(NCCc1ccccc1)c1nccc2ccccc12`, in the assay on HeLa, the AC50 was 68.6 µM (active).
As to `Cc1nc(N)sc1N=Nc1ccc(F)cc1`, the EC50 on Streptokinase A was > 150 µM (not active); with Streptococcus, > 150 µM (not active); in assay [13], 5.74 µM (active). Besides, the half-maximal activity concentration (AC50) in the assay on HeLa was 79.5 µM (active).
